These results are taken from article PMC11249953, “c-KIT inhibitors reduce pathology and improve behavior in the Tg(SwDI) model of Alzheimer’s disease” (Life Science Alliance, 2024).

Structures are written as SMILES. Values joined by “and” are separate entries in the source; they are usually repeats but may differ in a detail not shown here. Equal entries are not always repeated.

One assay relates to pTau. The experiment in a line: ELISA for pTau (S396) in brain lysates. Format: in vivo, mouse. The settings on record: Tg4510 mice; vs DMSO. On the procedure: All samples were analyzed in parallel using the same reagents. A total of 25 μl soluble protein was incubated overnight at 4°C with 25 μl of a mixed bead solution. After washing, samples were incubated with 25 μl detection antibody solution for 1.5 h at RT. Streptavidin–phycoerythrin (25 μl) was added to each well containing the 25 μl of detection antibody solution. Samples were then washed and suspended in 100 μl of sheath fluid. Samples were then run on MAGPIX with Xponent software. The median fluorescent intensity data were analyzed using a five-parameter logistic or spline curve-fitting method for calculating analyte concentrations in samples. Specific pTau ser396 (KHB7031; Invitrogen), aggregated Aβ (KHB3491; Thermo Fisher Scientific), and Aβ42 (KHB3442; Invitrogen) were performed according to manufacturer’s protocol on tissue soluble extracts from brain lysates in 1XSTEN buffer.
Background: An ELISA detects its analyte on a solid surface through an enzyme-linked reagent.

Assay [1] has as its system SH-SY5Y neuroblastoma cells transfected with α-synuclein. The experiment in a line: In vitro autophagy assay (Abcam kit, flow cytometry). It counts as cell-based, human. The settings on record: 10 μM, vs DMSO. Here is the method: To establish that treatment with BK40143 and BK40197 induces autophagy, human SH-SY5Y neuroblastoma cells were transfected with an α-synuclein plasmid before being treated with rapamycin/chloroquine as a positive control, DMSO as a negative control, or an ascending dose ([…]) of either BK40143 or BK40197 for 8 h. Cells were then harvested and treated using the Abcam Autophagy Assay kit, which uses a cationic amphiphilic tracer to stain autophagic vacuoles, before analysis via flow cytometry.
Human SH-SY5Y neuroblastoma cells were grown and cultured in F12 media with 10% fetal bovine serum, 1% L-glutamine, and 1% pen/strep at normal atmospheric conditions (37°C, 21% O2, 5% CO2). Upon reaching 50–70% confluence, cells were transduced with a lentivirus containing an alpha-synuclein plasmid and allowed to grow for 8 h. Cells were then treated with an ascending dose (100 nM–10 μM) of BK40143 or BK40197, or DMSO or rapamycin/chloroquine overnight before being harvested and treated with the Abcam Autophagy Assay kit (cat. #ab139484) according to manufacturer’s protocols. Cells were then resuspended in cell staining buffer before being analyzed on a Becton Dickinson LSRFortessas flow cytometer.
A general note: A flow cytometer gives signals particle by particle.

The test system of another assay is phospho-c-KIT. Nature of the assay: Western blot for phospho-c-KIT in brain lysates. It counts as in vivo, mouse. Conditions: TgAPP mice; BK40143 5 mg/kg, BK40197 45 mg/kg; vs DMSO. The source says:
c-KIT is responsible for mast cell development and homeostasis ([Lake et al, 1978]; [Linnekin, 1999]; [Kitamura et al, 2006]). TKs are the central driving force for processes leading to mast cell activation ([Parravicini et al, 2002]; [Gomez et al, 2005]). Multiple receptors are capable of mediating or modifying mast cell activation ([Kraft & Kinet, 2007]; [Kuehn & Gilfillan, 2007]), the major receptor responsible being FcεRI, the high affinity receptor for immunoglobulin E (IgE) ([Rivera & Gilfillan, 2006]). Mast cells are tissue-resident cells of hematopoietic lineage which are derived from CD13^+CD34^+KIT(CD117)^+ bone marrow pluripotent progenitors ([Kirshenbaum et al, 1999]). Although mast cells play an important role in the innate immune system ([Marshall, 2004]; [Galli et al, 2005]), these cells are also responsible for the detrimental exaggerated reactions to antigen ([Galli et al, 2008]) that follow the release of potent inflammatory mediators as a consequence of receptor-mediated mast cell activation ([Metcalfe et al, 1997]). The progression of these cells to fully mature mast cells is dependent on c-KIT activation which occurs because of stem cell factor-induced c-KIT dimerization and auto-phosphorylation ([Kirshenbaum et al, 1999]). […]
Brain hemispheres from treated and untreated animals were lysed in 1x STEN buffer and protein concentrations were measured via BCA assay. […]
(Immunoblotting shows a protein as a band on a membrane.)

The subject of the next assay is mice. Nature of the assay: Nesting, source data sheets Nesting (mouse line not given). It counts as in vivo. More on the design: key to Nesting Score AVG (of three observers) / Nesting Score AVG, group mean / Nesting Score / Nesting Score AVG: 0 = nestlet untouched to 5 = near perfect nest; key to Nesting Score (NICK) / Nesting Score (MICHAELINE) / Nesting Score(MAX) / Nesting Score (KORLISS): 0: nestlet untouched; 1: nestlet hardly touched (more than 90% intact); 2: nestlet partially torn (50–90% intact); 3: mostly shredded but no identifiable nest, less than 50% intact but less than 90% in a single quarter of the cage; 4: An identifiable but flat nest, more than 90% torn and material is gathered in a single quarter of the cage; 5: A near perfect nest, more than 90% of the nestlet is torn and the nest is a crater, with walls higher than the mouse body height. Conditions: for Nesting Score (MICHAELINE): observer MICHAELINE; for Nesting Score (NICK): observer NICK. On the procedure:
Mice were singly housed in standard cages overnight (6 pm–6 am) with a 3-gram cloth nestlet and allowed to freely behave. The next day, nestlets were weighed and photographed, and amount of nestlet shredding was recorded by three observers based on the following scale: 0—nestlet untouched, 1—nestlet hardly touched (more than 90% intact), 2—nestlet partially torn (50–90% intact), 3—mostly shredded but no identifiable nest, less than 50% intact but less than 90% in a single quarter of the cage, 4—An identifiable but flat nest, more than 90% torn and material is gathered in a single quarter of the cage, 5—A near perfect nest, more than 90% of the nestlet is torn and the nest is a crater, with walls higher than the mouse body height.

The mark [2] stands for this setting: 2.5mg/kg, individual mice, listed as 143.
[3] abbreviates: 5.0mg/kg, individual mice, listed as 143.

On to `Cc1cccc(-c2cc3nccc(Nc4ccccc4)c3s2)c1` [BK40143], for which, in the assay on pTau, the “pTau (396) concentration in brain lysate (ELISA)” value is “significantly reduced Aβ and pTau (396) concentrations”. The “labelled cells (autophagic vacuoles), induction of autophagy” value in assay [1] is given as “significant increases in labelled cells”. For the same compound, the “phospho-c-KIT levels in brain (Western blot)” value in the assay with phospho-c-KIT was “significant decrease in phospho-c-KIT levels”. Moreover, the “Nesting Score AVG, group mean” value stood at 0.9048 in the assay on mice (2.5mg/kg) and 1.067 in the assay with mice (5.0mg/kg). For the same compound, the “Nesting Score AVG (of three observers)” value is 0 and 1.333 and 2.667 and 1 in the assay with mice (setting [2]); 1.333 and 0.3333 and 1 and 2 and 0.6667 and 3.667 and 0 in the assay on mice (setting [3]). Also, the “Nestlet Weight” value in the assay on mice (2.5mg/kg, individual mice, listed as 143, in g (unit assumed)) is 2.6 and 2.8 and 2.7 and 0.9 and 2.5; in the assay on mice (5.0mg/kg, individual mice, listed as 143, in g (unit assumed)) it was 2.5 and 2.7 and 2.1 and 2.6 and 2.9 and 0. Also, the “Nesting Score(MAX)” value is 0 and 2 (nestlet partially torn (50–90% intact)) and 3 (mostly shredded but no identifiable nest, less than 50% intact but less than 90% in a single quarter of the cage) and 1 (nestlet hardly touched (more than 90% intact)) with mice (2.5mg/kg, observer MAX, individual mice, listed as 143); 2 (nestlet partially torn (50–90% intact)) and 1 (nestlet hardly touched (more than 90% intact)) and 4 and 0 in the assay with mice (5.0mg/kg, observer MAX, individual mice, listed as 143). Further, the “Nesting Score (MICHAELINE)” value in the assay with mice (setting [2]) is 0 and 1 (nestlet hardly touched (more than 90% intact)) and 2 (nestlet partially torn (50–90% intact)); in the assay with mice (setting [3]) it was 1 (nestlet hardly touched (more than 90% intact)) and 0 and 2 (nestlet partially torn (50–90% intact)) and 3 (mostly shredded but no identifiable nest, less than 50% intact but less than 90% in a single quarter of the cage). In addition, the “Nesting Score (NICK)” value in the assay with mice (setting [2]) is 0 and 1 (nestlet hardly touched (more than 90% intact)) and 3 (mostly shredded but no identifiable nest, less than 50% intact but less than 90% in a single quarter of the cage); in the assay on mice (setting [3]), 1 (nestlet hardly touched (more than 90% intact)) and 0 and 2 (nestlet partially torn (50–90% intact)) and 4.
For `Cc1cccc(-c2cc3nccc(N4CCOCC4)c3s2)c1` [BK40197], the “pTau (396) concentration in brain lysate (ELISA)” value in the assay with pTau was “significantly reduced Aβ and pTau (396) concentrations”. In assay [1], the “labelled cells (autophagic vacuoles), induction of autophagy” value is “significant increases in labelled cells”. Also, the “phospho-c-KIT levels in brain (Western blot)” value in the assay with phospho-c-KIT was “similar, albeit not statistically significant, trend”. Moreover, the “Nesting Score” value with mice (average score of the raters listed by treatment group, one value per mouse, listed as 197) was 2 and 1 and 0.5 and 0 and 3. Moreover, the “Nesting Score AVG” value with mice (nesting, average of the raters, one value per mouse, listed as 197) is 2 and 1 and 3 and 0.5 and 0. Also, the “Nesting Score (KORLISS)” value with mice (nesting, rater KORLISS, one value per mouse, listed as 197) was 2 (nestlet partially torn (50–90% intact)) and 1 (nestlet hardly touched (more than 90% intact)) and 4 and 0. In addition, the “Nesting Score(MAX)” value in the assay on mice (nesting, rater MAX, one value per mouse, listed as 197) is 2 (nestlet partially torn (50–90% intact)) and 1 (nestlet hardly touched (more than 90% intact)) and 0. Further, the Weight in the assay with mice (nestlet weight listed by treatment group, one value per mouse, listed as 197, in g (unit assumed)) was 2.1 and 2.8 and 2.5 and 2.6 and 2.9 and 1.7.
